Measurements reported in patent US20240199663A1, “Cyclopolyphosphazenes, Related Methods of Preparation and Methods of Use” (University of Saskatchewan, priority 2021, published 2024).

Key:
[1] = test system: antigen-specific IgG1; assay: Vaccination in mice with ovalbumin as an antigen, serum IgG1 ELISA; format: in vivo, Balb/c mice; settings: triple adjuvant composition (10 μg polyphosphazene: 20 μg IDR-1002: 10 μg Poly(I:C)) with Ova 50 μg or 1 μg, intramuscular, after two immunizations (Week 8), FIGS. 2 and 5
Experimental: (§1) To assess the adjuvant activity of the cyclopolyphosphazene 37, four in vivo studies were conducted with intramuscular administration of an ovalbumin (Ova) vaccine in mice. In the first two studies, the Ova vaccine was either formulated with no adjuvant or with a triple adjuvant (TriAdj). The first two studies compared three different triple adjuvants, all comprising Poly(I:C), IDR-1002 peptide and a polyphosphazene: either PCEP, 37 or 11. The third and fourth studies compared four different triple adjuvants, all comprising Poly(I:C), IDR-1002 peptide and a polyphosphazene: either PCEP, compound 11, compound 37 or compound 39.
(§2) In all studies, mice were randomized to cages such that the various treatment groups were not together in the same cage. All groups received Ova antigen mixed with the adjuvant (or not) just prior to intramuscular administration. All the vaccines were formulated and injected in 50 μL (25 μ/leg). Mice were vaccinated at Day 0 and Day 28 (Week 4) with the same dose.
(§3) In all studies, serum was collected on days 0, 28 and 56 for antigen-specific IgG1 and IgG2a ELISAs. […] Plates were read with a Biorad iMark Microplate Reader™. Data were expressed as titres, which represent the dilution factor required to generate an absorbance reading three standard deviations above the average value of the negative control, e.g. serum from control mice receiving no vaccination. […]

[2] = test system: antigen-specific IgG2a; assay: Vaccination in mice with ovalbumin as an antigen, serum IgG2a ELISA; format: in vivo, Balb/c mice; settings: triple adjuvant composition (10 μg polyphosphazene: 20 μg IDR-1002: 10 μg Poly(I:C)) with Ova 50 μg or 1 μg, intramuscular, after two immunizations (Week 8), FIGS. 3 and 5
Experimental: as §1, §2, §3

[3] = test system: SipD-antigen-specific IgG; assay: Vaccination in chicken with SipD as an antigen, serum IgG ELISA; format: in vivo, Leghorn chicken; settings: triple adjuvant composition (20 μg polyphosphazene: 40 μg IDR-1002: 20 μg Poly(I:C)) with 10 μg SipD, intramuscular, after two immunizations (Week 4), FIG. 1B
Experimental: To assess the adjuvant activity of cyclopolyphosphazene candidates, such as 37, 11 and 39, an in vivo study was conducted with intramuscular administration of a Salmonella typhimurium Cell invasion protein (SipD) vaccine in young chicken. Two-week-old Leghorn chicken were randomly divided into three single adjuvant groups, three triple adjuvant groups and one PBS-adjuvant control group (n=12/group). The single adjuvant groups contained 20 μg PCEP, 11 or 37 polyphosphazene. All triple adjuvants comprised Poly(I:C), IDR-1002 peptide and a polyphosphazene: either PCEP, 37 or 11.
All vaccines were formulated prior to administration and injected in 200 μL intramuscularly in the tail area. Chicken were vaccinated at Day 0 and Day 14 (Week 2) with the same dose. […]
Serum was collected on days 0, 14 and 28 for SipD-antigen-specific IgG ELISAs. […] Plates were read with a Molecular Devices SpectraMax Plus 384 Reader™. Data were expressed as titres, which represent the dilution factor required to generate an absorbance reading two standard deviations above the average value of the negative control, e.g. serum from control chicken receiving no vaccination.

CCCCCCCCCCCC(=O)NCCCCCCNC(=O)C(CCCCN)NC(=O)CCc1ccc(OP2(Oc3ccc(CCC(=O)NC(CCCCN)C(=O)NCCCCCCNC(=O)CCCCCCCCCCC)cc3)=NP(Oc3ccc(CCC(=O)NC(CCCCN)C(=O)NCCCCCCNC(=O)CCCCCCCCCCC)cc3)(Oc3ccc(CCC(=O)NC(CCCCN)C(=O)NCCCCCCNC(=O)CCCCCCCCCCC)cc3)=NP(Oc3ccc(CCC(=O)NC(CCCCN)C(=O)NCCCCCCNC(=O)CCCCCCCCCCC)cc3)(Oc3ccc(CCC(=O)NC(CCCCN)C(=O)NCCCCCCNC(=O)CCCCCCCCCCC)cc3)=N2)cc1 (stereo not drawn) [Compound 37, N,N′,N″,N′″,N″″,N′″″-(((2,2′,2″,22′″,2″″,2′″″-((3,3′,3″,3′″,3″″,3′″″-(((1,3,5,2l5,4l5,6l5-triazatriphosphinine-2,2,4,4,6,6-hexayl)hexakis(oxy))hexakis(benzene-4,1-diyl))hexakis(propanoyl))hexakis(azanediyl))hexakis(6-aminohexanoyl))hexakis(azanediyl))hexakis(hexane-6,1-diyl))hexadodecanamide]
significantly greater response: response in IgG1 relative to a vaccine without adjuvant [1] | response in IgG2a relative to a vaccine without adjuvant [2] | antigen-specific IgG titres relative to a vaccine without adjuvant [3]
